One assay has as its target CDK9/cyclin T1 (Homo sapiens, UniProt P50750). As to the kind of experiment: Inhibition of recombinant full length human CDK9/cyclin T expressed in baculovirus infected Sf9 insect cells using YSPTSPSYSPTSPSYSPTSPSKKKK as substrate in presence of [gamma-33P]ATP.
The next assay has as its system MDA-MB-435. The assay can be described thus: Cytotoxicity against human MDA-MB-435 cells assessed as cell growth at 10 uM after 48 hrs by SRB assay relative to control. Type of assay: functional. The conditions noted are these: MDA-MB-435, 48 h, read-out: Activity. (In SRB staining, fixed cells bind dye roughly in proportion to their protein.)
The subject of the next assay is NCI-H460. The assay can be described thus: Cytotoxicity against human NCI-H460 cells assessed as cell growth at 10 uM after 48 hrs by SRB assay relative to control. Type of assay: functional. The conditions noted are these: NCI-H460, 48 h, read-out: Activity.
For a further assay, the system named is NCI-H23. The assay can be described thus: Cytotoxicity against human NCI-H23 cells assessed as cell growth at 10 uM after 48 hrs by SRB assay relative to control. Format: functional. The following applies: NCI-H23, 48 h, read-out: Activity.
For assay [1], the target named is T1, Serine/threonine-protein kinase haspin (Homo sapiens) (UniProt Q8TF76).
T1 sequence (whole entry): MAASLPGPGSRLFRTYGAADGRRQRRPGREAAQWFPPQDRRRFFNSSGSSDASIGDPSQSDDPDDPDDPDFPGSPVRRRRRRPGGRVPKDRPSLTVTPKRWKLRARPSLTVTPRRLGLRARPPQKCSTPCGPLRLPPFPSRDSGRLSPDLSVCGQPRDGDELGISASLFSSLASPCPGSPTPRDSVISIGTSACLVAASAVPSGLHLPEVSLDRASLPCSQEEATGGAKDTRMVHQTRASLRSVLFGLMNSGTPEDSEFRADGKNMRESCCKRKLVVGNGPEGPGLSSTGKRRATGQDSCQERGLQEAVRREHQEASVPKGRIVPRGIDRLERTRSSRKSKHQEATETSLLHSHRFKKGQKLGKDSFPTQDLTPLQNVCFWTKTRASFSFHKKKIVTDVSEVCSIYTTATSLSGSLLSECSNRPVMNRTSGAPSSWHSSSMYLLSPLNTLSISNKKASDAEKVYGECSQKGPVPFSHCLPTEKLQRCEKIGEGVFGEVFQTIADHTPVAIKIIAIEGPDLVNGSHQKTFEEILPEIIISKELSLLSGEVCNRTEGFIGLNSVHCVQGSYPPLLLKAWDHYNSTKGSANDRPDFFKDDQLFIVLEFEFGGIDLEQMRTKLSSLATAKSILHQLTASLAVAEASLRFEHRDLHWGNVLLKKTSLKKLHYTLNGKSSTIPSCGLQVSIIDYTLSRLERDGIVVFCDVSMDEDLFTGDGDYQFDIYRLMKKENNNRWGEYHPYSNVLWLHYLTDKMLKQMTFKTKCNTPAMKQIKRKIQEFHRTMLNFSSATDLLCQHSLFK
The assay can be described thus: Inhibition of recombinant human haspin kinase domain expressed in bacteria assessed as residual activity at 10 uM using histone H3 (1 to 21 residues) peptide as substrate in presence of [gamma-33P]ATP.

Assay [2] concerns the target Receptor-interacting serine/threonine-protein kinase 3 (Homo sapiens, UniProt Q9Y572). As to the kind of experiment: Inhibition of recombinant full length human RIPK3 expressed in baculovirus infected Sf9 insect cells assessed as residual activity at 10 uM using MBP as substrate in presence of [gamma-33P]ATP.
Another assay deals with COLO 205. As to the kind of experiment: Cytotoxicity against human COLO205 cells assessed as cell growth at 10 uM after 48 hrs by SRB assay relative to control. The following applies: COLO 205, 48 h, read-out: Activity. Format: functional.
A further assay deals with HL-60(TB). The assay can be described thus: Cytotoxicity against human HL-60(TB) cells assessed as cell growth at 10 uM after 48 hrs by SRB assay relative to control. Format: functional. The following applies: HL-60, 48 h, read-out: Activity.
Another assay has as its system MCF7. As to the kind of experiment: Cytotoxicity against human MCF7 cells assessed as cell growth at 10 uM after 48 hrs by SRB assay relative to control. Format: functional. The following applies: MCF7, 48 h, read-out: Activity.
Another assay has as its system OVCAR-8. As to the kind of experiment: Cytotoxicity against human OVCAR8 cells assessed as cell growth at 10 uM after 48 hrs by SRB assay relative to control. Type of assay: functional. The following applies: OVCAR-8, 48 h, read-out: Activity.
A further assay deals with CDK2/Cyclin A2 (Homo sapiens, UniProt P24941). The assay can be described thus: Inhibition of full length human CDK2/cyclin A using histone H1 as substrate in presence of [gamma-33P]ATP. Type of assay: protein-complex assay.
The target in assay [3] is Serine/threonine-protein kinase pim-1 (Homo sapiens, UniProt P11309). The assay can be described thus: Inhibition of recombinant full length human PIM1 expressed in bacteria using histone H1 as substrate in presence of [gamma-33P]ATP.
Chain of Serine/threonine-protein kinase pim-1 (P11309 whole entry): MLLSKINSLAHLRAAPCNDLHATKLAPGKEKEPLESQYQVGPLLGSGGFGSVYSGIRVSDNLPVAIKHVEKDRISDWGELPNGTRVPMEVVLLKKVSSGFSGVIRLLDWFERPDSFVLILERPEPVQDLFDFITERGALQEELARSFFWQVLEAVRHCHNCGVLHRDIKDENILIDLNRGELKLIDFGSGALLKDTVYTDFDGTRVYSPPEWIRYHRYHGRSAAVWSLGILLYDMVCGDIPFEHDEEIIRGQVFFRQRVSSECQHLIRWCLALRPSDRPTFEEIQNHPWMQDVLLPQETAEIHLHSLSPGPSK
In another assay the test system is PC-3. The assay can be described thus: Cytotoxicity against human PC3 cells assessed as cell growth at 10 uM after 48 hrs by SRB assay relative to control. Type of assay: functional. The following applies: PC-3, 48 h, read-out: Activity.
A further assay relates to CCRF-CEM. The assay can be described thus: Cytotoxicity against human CCRF-CEM cells assessed as cell growth at 10 uM after 48 hrs by SRB assay relative to control. Type of assay: functional. The conditions noted are these: read-out: Activity.
The test system of a further assay is SF-295. The assay can be described thus: Cytotoxicity against human SF295 cells assessed as cell growth at 10 uM after 48 hrs by SRB assay relative to control. Type of assay: functional. The following applies: SF-295, 48 h, read-out: Activity.
Another assay deals with IGROV-1. The assay can be described thus: Cytotoxicity against human IGROV1 cells assessed as cell growth at 10 uM after 48 hrs by SRB assay relative to control. Type of assay: functional. The following applies: IGROV-1, 48 h, read-out: Activity.
The next assay has as its system ACHN. As to the kind of experiment: Cytotoxicity against human ACHN cells assessed as cell growth at 10 uM after 48 hrs by SRB assay relative to control. The following applies: read-out: Activity. Type of assay: functional.
The next assay has as its system CAKI-1. The assay can be described thus: Cytotoxicity against human Caki1 cells assessed as cell growth at 10 uM after 48 hrs by SRB assay relative to control. Format: functional. The following applies: CAKI-1, 48 h, read-out: Activity.
For a further assay, the system named is K562. The assay can be described thus: Cytotoxicity against human K562 cells assessed as cell growth at 10 uM after 48 hrs by SRB assay relative to control. Type of assay: functional. The conditions noted are these: K562, 48 h, read-out: Activity.
In the next assay the test system is UACC-62. As to the kind of experiment: Cytotoxicity against human UACC62 cells assessed as cell growth at 10 uM after 48 hrs by SRB assay relative to control. Type of assay: functional. The following applies: UACC-62, 48 h, read-out: Activity.
The target of the next assay is Aurora kinase B (Homo sapiens, UniProt Q96GD4). The assay can be described thus: Inhibition of recombinant full length human aurora B expressed in baculovirus infected Sf9 insect cells assessed as residual activity at 10 uM using MBP as substrate in presence of [gamma-33P]ATP.
Chain of Aurora kinase B (Q96GD4 whole entry): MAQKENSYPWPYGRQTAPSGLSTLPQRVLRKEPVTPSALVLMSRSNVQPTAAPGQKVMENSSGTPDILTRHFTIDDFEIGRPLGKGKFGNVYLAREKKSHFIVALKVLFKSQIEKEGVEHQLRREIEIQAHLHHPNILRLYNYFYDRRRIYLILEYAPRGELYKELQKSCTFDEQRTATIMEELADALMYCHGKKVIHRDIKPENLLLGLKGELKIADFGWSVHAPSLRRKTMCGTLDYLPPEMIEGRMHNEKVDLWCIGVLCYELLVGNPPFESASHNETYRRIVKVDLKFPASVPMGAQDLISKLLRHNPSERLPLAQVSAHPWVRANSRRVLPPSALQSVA
The test system of another assay is DU-145. The assay can be described thus: Cytotoxicity against human DU145 cells assessed as cell growth at 10 uM after 48 hrs by SRB assay relative to control. Type of assay: functional. The conditions noted are these: DU-145, 48 h, read-out: Activity.
Assay [4] concerns the target Dual specificity tyrosine-phosphorylation-regulated kinase 1A (Rattus norvegicus, UniProt Q63470). As to the kind of experiment: Inhibition of recombinant rat DYRK1A kinase domain expressed in bacteria using KKISGRLSPIMTEQ as substrate in presence of [gamma-33P]ATP.
Assay [5] addresses Cyclin-dependent kinase 5/CDK5 activator 1 (Homo sapiens) (UniProt Q00535+Q15078). The assay can be described thus: Inhibition of recombinant full length human CDK5/p25 expressed in bacteria assessed as residual activity at 10 uM using histone H1 as substrate in presence of [gamma-33P]ATP.

Usually IC50 stands for the concentration that inhibits the measured activity by half.

Chain of CDK9/cyclin T1 (O60563 whole entry): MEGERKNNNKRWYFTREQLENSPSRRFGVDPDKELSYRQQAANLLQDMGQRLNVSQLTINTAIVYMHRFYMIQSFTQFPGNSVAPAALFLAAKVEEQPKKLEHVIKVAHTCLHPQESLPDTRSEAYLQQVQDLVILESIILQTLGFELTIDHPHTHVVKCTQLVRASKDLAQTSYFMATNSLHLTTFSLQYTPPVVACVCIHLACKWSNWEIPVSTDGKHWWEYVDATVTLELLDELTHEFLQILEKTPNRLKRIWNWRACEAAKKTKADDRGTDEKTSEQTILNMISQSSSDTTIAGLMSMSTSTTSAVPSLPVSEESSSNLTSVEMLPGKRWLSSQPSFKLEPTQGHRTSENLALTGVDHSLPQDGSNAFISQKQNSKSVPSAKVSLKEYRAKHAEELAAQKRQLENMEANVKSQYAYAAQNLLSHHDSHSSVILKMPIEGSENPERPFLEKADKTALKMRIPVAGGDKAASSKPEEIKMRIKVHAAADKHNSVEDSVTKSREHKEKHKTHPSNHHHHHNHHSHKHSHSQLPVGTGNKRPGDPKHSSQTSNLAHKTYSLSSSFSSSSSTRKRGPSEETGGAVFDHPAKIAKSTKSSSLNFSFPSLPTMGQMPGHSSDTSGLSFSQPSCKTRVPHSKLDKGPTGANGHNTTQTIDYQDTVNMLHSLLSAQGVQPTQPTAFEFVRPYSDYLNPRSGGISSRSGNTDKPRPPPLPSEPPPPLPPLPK
Chain of CDK9/cyclin T1 (P50750 whole entry): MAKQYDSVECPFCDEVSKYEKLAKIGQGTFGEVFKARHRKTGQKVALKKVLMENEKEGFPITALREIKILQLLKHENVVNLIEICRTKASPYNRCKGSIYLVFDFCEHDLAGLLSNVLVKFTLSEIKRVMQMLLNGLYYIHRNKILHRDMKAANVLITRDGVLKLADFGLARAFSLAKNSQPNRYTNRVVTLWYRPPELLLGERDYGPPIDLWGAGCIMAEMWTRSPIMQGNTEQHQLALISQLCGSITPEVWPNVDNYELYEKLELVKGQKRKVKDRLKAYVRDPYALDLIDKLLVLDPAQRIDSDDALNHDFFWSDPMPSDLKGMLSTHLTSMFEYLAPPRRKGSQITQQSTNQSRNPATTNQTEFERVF
Chain of Receptor-interacting serine/threonine-protein kinase 3 (Q9Y572 whole entry, looked up): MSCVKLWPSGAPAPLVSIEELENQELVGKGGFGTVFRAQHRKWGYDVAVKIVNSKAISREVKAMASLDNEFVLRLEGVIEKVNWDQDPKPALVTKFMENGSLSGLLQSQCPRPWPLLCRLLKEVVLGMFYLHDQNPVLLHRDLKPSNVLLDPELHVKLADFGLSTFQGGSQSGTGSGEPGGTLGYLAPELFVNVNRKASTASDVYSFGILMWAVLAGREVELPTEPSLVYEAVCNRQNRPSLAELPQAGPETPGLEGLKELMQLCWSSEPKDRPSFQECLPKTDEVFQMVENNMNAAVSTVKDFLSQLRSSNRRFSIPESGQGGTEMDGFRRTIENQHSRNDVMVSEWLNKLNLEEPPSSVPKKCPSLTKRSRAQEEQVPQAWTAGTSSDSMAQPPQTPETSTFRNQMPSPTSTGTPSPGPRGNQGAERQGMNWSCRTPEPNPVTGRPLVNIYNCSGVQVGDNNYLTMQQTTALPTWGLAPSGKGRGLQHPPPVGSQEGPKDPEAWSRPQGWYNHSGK
Chain of Cyclin-dependent kinase 5/CDK5 activator 1 (Homo sapiens) (Q00535 whole entry): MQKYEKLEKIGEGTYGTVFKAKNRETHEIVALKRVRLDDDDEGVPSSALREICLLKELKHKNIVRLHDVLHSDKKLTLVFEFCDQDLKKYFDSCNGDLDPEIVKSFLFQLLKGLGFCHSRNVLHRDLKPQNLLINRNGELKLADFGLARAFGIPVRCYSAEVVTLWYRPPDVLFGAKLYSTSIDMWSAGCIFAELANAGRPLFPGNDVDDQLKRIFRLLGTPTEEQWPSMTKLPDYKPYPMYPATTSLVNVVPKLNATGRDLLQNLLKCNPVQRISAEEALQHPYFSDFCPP
Chain of Cyclin-dependent kinase 5/CDK5 activator 1 (Homo sapiens) (Q15078 99-307 partner limits assumed): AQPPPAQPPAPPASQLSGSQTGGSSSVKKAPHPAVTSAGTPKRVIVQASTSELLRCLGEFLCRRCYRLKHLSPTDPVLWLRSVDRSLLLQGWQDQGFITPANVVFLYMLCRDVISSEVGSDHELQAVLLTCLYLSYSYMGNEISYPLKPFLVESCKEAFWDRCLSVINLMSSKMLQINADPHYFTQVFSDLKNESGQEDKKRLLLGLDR

Regarding `O=C(O)CCCCCn1cc(C2=C(c3c[nH]c4ccccc34)C(=O)N(O)C2=O)c2ccccc21`, the IC50 is 2 µM at CDK9/cyclin T1, over 10 µM at CDK2/Cyclin A2, over 10 µM in assay [3] and 2 µM in assay [4]. Moreover, the growth at 10 µM with MDA-MB-435 stood at 102%; in the assay with NCI-H460 it was 103%; in the assay with NCI-H23, 97.6%; with COLO 205, 102%; in the assay with HL-60(TB) it was 108%; with MCF7, 102%. Besides, the growth at 10 µM in the assay on OVCAR-8 stood at 99.4%; in the assay on PC-3, 84.9%; in the assay on CCRF-CEM, 96.2%; in the assay on SF-295 it was 105%; in the assay with IGROV-1, 93.4%; in the assay on ACHN, 97.5%. Besides, the growth at 10 µM in the assay with CAKI-1 was found to be 92.2%; in the assay on K562 it was 94.8%; with UACC-62, 95.7%; with DU-145, 104%. Besides, the Activity turned out to be 113% in assay [1], 100% in [2], 63% at Aurora kinase B and 60% in [5].

On to `O=C1C2=C(C(=O)N1O)c1cn(c3ccccc13)CCCCCCn1cc2c2ccccc21`, for which the IC50 (on CDK9/cyclin T1; at CDK2/Cyclin A2; in [3]; in assay [4]) was over 10 µM each time. Moreover, the growth at 10 µM was 111% in the assay on MDA-MB-435; 100% in the assay on NCI-H460; 99.7% in the assay with NCI-H23; 110% with COLO 205; 105% with HL-60(TB); 99.6% in the assay with MCF7. Further, the growth at 10 µM in the assay on OVCAR-8 worked out at 110%; with PC-3, 95.8%; in the assay on CCRF-CEM, 99.4%; in the assay on SF-295, 107%; with IGROV-1 it was 113%; with ACHN it was 109%. Further, the growth at 10 µM with CAKI-1 stood at 95.7%; in the assay on K562, 109%; in the assay on UACC-62, 100%; in the assay with DU-145, 108%. Besides, the Activity came to 134% in [1], 108% in [2], 97% at Aurora kinase B and 91% in assay [5].

Turning to `Cn1cc(C2=C(c3cn(CCCCCC#N)c4ccccc34)C(=O)N(O)C2=O)c2ccccc21`, the IC50 at CDK9/cyclin T1 is 2.1 µM; at CDK2/Cyclin A2, over 10 µM; in [3] it was over 10 µM; in [4] it was 5 µM. For the same molecule, the growth at 10 µM in the assay with MDA-MB-435 was 68.1%; with NCI-H460, 99.3%; in the assay with NCI-H23, 88.1%; with COLO 205, 92.6%; with HL-60(TB), 124%; in the assay on MCF7, 77.7%. Besides, the growth at 10 µM in the assay on OVCAR-8 is 100%; in the assay with PC-3, 80.5%; in the assay with CCRF-CEM, 83.3%; in the assay on SF-295 it was 107%; with IGROV-1 it was 93.8%; in the assay with ACHN, 97.4%. Moreover, the growth at 10 µM worked out at 81.3% in the assay on CAKI-1, 78.8% with K562, 82% in the assay on UACC-62 and 106% in the assay on DU-145. The Activity in assay [1] is 114%; in assay [2], 105%; on Aurora kinase B it was 71%; in assay [5] it was 49%.
